Assay results as given in US6340684B1, “Phthalazine derivatives as phosphodiesterase 4 inhibitors” (Zambon Group S.p.A., priority 1998, dated 2002).

Target: PDE 4 enzyme
Experiment: PDE 4 enzyme inhibition (Scintillation Proximity Assay, enzyme purified from human polymorphonuclear leukocytes)
Format: biochemical
Settings: PDE 4 from human PMNs; SPA, [3H]cAMP, 40 minutes at 30° C.; read-out: IC50 (concentration required to inhibit cyclic nucleotide hydrolysis by 50%)
Description: Human polymorphonuclear leukocyte isolation
The polymorphonuclear leukocytes (PMNs) were isolated from peripheral blood of healthy volunteers according to Boyum A. (Scand. J. Immunol., 1976, 5th suppl., 9). Briefly, the PMNs were purified by Ficoll-Paque gradient centrifugation followed by sedimentation on dextran and the erythrocyte contamination was eliminated by hypotonic lysis.
PDE 4 enzyme purification
The human PMNs were suspended in TRIS/HCl buffer (10 mM, pH 7.8) containing MgCl2 (5 mM), EGTA (4 mM), mercaptoethanol (5 mM), TRITON-X100 (1%), pepstatin A (1 μM), PMSF (100 μM) and leupeptin (1 μM), and homogenised by Polytron homogeniser. The homogenate was centrifuged at 25,000×g for 30 minutes at 4° C. and the PDE 4 enzyme was purified by ion exchange chromatography using the FPLC technique according to Schudt C. et al. (Naunyn-Schmidberg's Arch. Pharmacol., 1991, 334, 682). The supernatant was seeded on a UNO Q12 column (Bio-Rad) and the enzyme was eluted by sodium acetate linear gradient from 50 mM to 1M using a flow rate of 4.5 ml/minutes. […]
The enzyme activity was evaluated with a Scintillation Proximity Assay (SPA) kit (Amersham). […]
SPA beads (50 μl) containing 18 mM zinc sulphate were added to stop the reaction and after 20 minutes at room temperature the radioactivity was measured using a scintillation counter. […]

IC50: 8 ± 0.5 nM
SMILES: CS(=O)(=O)N1Cc2c(ccc(OC(F)F)c2OC2CCCO2)C(Cc2c(Cl)cncc2Cl)=N1 (stereo not shown) [Compound 10, 1-(3,5-dichloro-pyridin-4-ylmethyl)-3-methansulphonyl-6-difluoromethoxy-5-(tetrahydro-furan-2-yloxy)-4H-phthalazine]
